Test results as given in patent publication US12138383B2, “Heating unit for use in a drug delivery device” (ALEXZA PHARMACEUTICALS, INC., priority 2007, dated 2024).

Key:
[1] = Aerosol purity of condensation aerosol vaporized from drug-coated substrate in substrate screening apparatus (HPLC of filter extract); type: physicochemical; settings: heat-oxidized perforated 316 stainless steel
Text: The substrate screening apparatus 400 is made of a machined plastic (polyoxymethylene, DELRIN® Acetal Resin, DuPont, Wilmington, DE) block 402 with a 2 cm^2 cross-sectional area for mounting a substrate 412. Block 402 includes a first airway 404 extending from first inlet 414 to outlet 422. Block 402 also include a second airway 406 extending from second inlet 416 to substrate 412, where it typically joins the first airway. The substrate 412 is mounted in the substrate screening apparatus 400 across two electrodes 420. A first air flow 414 is established in first airway 404 and a second air flow 416 is established in second airway 406 such that the second air flow 416 passes from the second airway 406 to first airway 404 through holes in the substrate 412. While providing air flows 414 and 416, the substrate 412 is heated, typically by discharging a capacitor (not shown) across the substrate 412. In a one embodiment, the flow of air passing through holes in the substrate 412 is in a direction orthogonal to that of air flow 414. Substrate 412 is coated with a drug composition film. The substrate 412 is heated to vaporized all or a portion of the drug composition. The vaporized drug subsequently cools and condenses to form a condensation aerosol that is carried to the outlet by air flow 414, joined by air flow 416). Accordingly, the condensation aerosol is emitted from the outlet 422.
The test substrates were then coated with a drug composition. The drug was typically dissolved in a volatile organic solvent (e.g., dichloromethane/methanol mixture or acetone or other suitable organic solvent) and then spray-coated onto the test substrates using an automated spray coater. Coating parameters, such as the drug concentration in the coating solution, solution flow rate, were selected to obtain a uniform drug coating of the desired coating density (i.e., mass/area).
Total air flow through the substrate screening apparatus was set by providing air flows 414 and 416 at a desired ratio. (As used herein, “across” air flow refers to air flow 414 and “bottom” air flow refers to air flow 416.) Brass electrodes 420 attached to the substrate screening apparatus 400 were used to clamp the substrate 412 in place and provide electrical connections. For most experiments, a 1-Farad capacitor was used as the energy source. The capacitor was typically charged to 11-14 volts, depending on the desired substrate temperature. A high current relay was used to connect the circuit and discharge the capacitor across the substrate to induce heating and vaporization of the drug.
FIG. 5 is a schematic of another embodiment of a substrate screening apparatus 500 that was used to direct air flow through the holes of coated polyimide film (KAPTON® polyimide film) substrates (see FIGS. 2A and 2B). Substrate screening apparatus 500 is similar in configuration and operation to substrate screening apparatus 400, with the exception that substrate screening apparatus 500 includes two electrodes 502 on the same side of the screening apparatus 500, whereas substrate screening apparatus 400 includes two electrodes 420 on opposite sides of the screening apparatus 400. In the examples using polyimide film substrates described below, a polyimide film substrate coated with a drug composition was placed in substrate screening apparatus 500 across electrodes 502. A computer-controlled power supply was connected to the electrodes. The power supply was typically capable of heating the polyimide film substrate to the target temperature within 300 milliseconds, and the substrate was kept at the target temperature for a duration of 1 second.
To determine aerosol purity and emitted dose, a 2 μm Teflon filter (ZEFLUOR PTFE filters, available from Zefon International, Inc., Ocala, FL) was placed immediately downstream from the screening apparatus during aerosol generation. […]

[2] = Aerosol particle size distribution by Anderson Cascade Impactor; type: physicochemical; settings: heat-oxidized perforated 316 stainless steel; for Average MMAD (μm): 28.3 liters/minute; for GSD / MMAD (μm): approx. 0.07 mg/cm^2, 28.3 liters/minute
Text: An Anderson Cascade Impactor (ACI), an inertial impaction size separating device, was used to determine the particle size distribution of the aerosol. The ACI consists of several stages, with each successive stage having a smaller size cutoff. By extracting and determining the mass of drug deposited at each stage, it is possible to estimate the particle size distribution of the aerosol. The ACI was placed immediately downstream from the screening apparatus. Again, the airway and substrate were extracted to determine the mass balance for each actuation of the device.

## CCCCNc1cc(C(=O)O)cc(S(N)(=O)=O)c1Oc1ccccc1 [Bumetanide, bumetanide]
[1]; 0.07 mg/cm^2, 20 liters/minute, as little as 5% of air flow through the substrate
  aerosol purity: 98%
[1]; 20 liters/minute, across:bottom 0:100
  Emitted Aerosol Purity (%): 98.5%
[1]; 20 liters/minute, across:bottom 0:100, coating density 0.08 mg/cm^2
  aerosol purity: 99.3 ± 0.1
[1]; 20 liters/minute, across:bottom 0:100, coating density 0.10 mg/cm^2
  Mean Aerosol Purity (%): 98.8%
[1]; 20 liters/minute, across:bottom 0:100, coating density 0.14 mg/cm^2
  Mean Aerosol Purity (%): 98.8%
[1]; 20 liters/minute, across:bottom 0:100, coating density 0.26 mg/cm^2
  aerosol purity: 98.9 ± 0.1
[1]; 20 liters/minute, across:bottom 0:100, coating density 0.58 mg/cm^2
  aerosol purity: 98.7 ± 0.3
[1]; 20 liters/minute, across:bottom 50:50
  Emitted Aerosol Purity (%): 98.4%
[1]; 20 liters/minute, across:bottom 50:50, coating density 0.10 mg/cm^2
  Mean Aerosol Purity (%): 98.8%
[1]; 20 liters/minute, across:bottom 50:50, coating density 0.14 mg/cm^2
  Mean Aerosol Purity (%): 98.9%
[1]; 20 liters/minute, across:bottom 90:10, coating density 0.08 mg/cm^2
  aerosol purity: 99.2 ± 0.1
[1]; 20 liters/minute, across:bottom 90:10, coating density 0.26 mg/cm^2
  aerosol purity: 98.6 ± 0.1
[1]; 20 liters/minute, across:bottom 90:10, coating density 0.58 mg/cm^2
  aerosol purity: 98.4 ± 0.3
[1]; 20 liters/minute, across:bottom 100:0
  Emitted Aerosol Purity (%): 96.4%
[1]; 20 liters/minute, across:bottom 100:0, coating density 0.08 mg/cm^2
  aerosol purity: 95.8 ± 0.6
[1]; 20 liters/minute, across:bottom 100:0, coating density 0.10 mg/cm^2
  Mean Aerosol Purity (%): 95.7%
[1]; 20 liters/minute, across:bottom 100:0, coating density 0.14 mg/cm^2
  Mean Aerosol Purity (%): 94.8%
[1]; 20 liters/minute, across:bottom 100:0, coating density 0.26 mg/cm^2
  aerosol purity: 94.8 ± 0.2
[1]; 20 liters/minute, across:bottom 100:0, coating density 0.58 mg/cm^2
  aerosol purity: 90.7 ± 0.4
[2]; coating density 0.08 mg/cm^2, across:bottom 90:10
  Average MMAD (μm): 2.2 μm
[2]; coating density 0.26 mg/cm^2, across:bottom 90:10
  Average MMAD (μm): 1.6 μm
[2]; coating density 0.58 mg/cm^2, across:bottom 0:100
  Average MMAD (μm): 0.9 μm
[2]; coating density 0.58 mg/cm^2, across:bottom 90:10
  Average MMAD (μm): 1.9 μm
[2]; coating density 0.58 mg/cm^2, across:bottom 100:0
  Average MMAD (μm): 1.7 μm
[2]; across:bottom 0:100
  GSD: 2.4 ± 0.1
  MMAD (μm): 0.4 ± 0.0 μm
[2]; across:bottom 90:10
  GSD: 2.0 ± 0.1
  MMAD (μm): 2.7 ± 0.1 μm
[2]; across:bottom 100:0
  GSD: 4.0 ± 0.5
  MMAD (μm): 3.6 ± 0.5 μm
